Assay results from patent US12275711B2, “Compounds having excited state intramolecular proton transfer (ESIPT) character for use in treating and/or preventing sunburn and/or preventing U.V. damage” (UNIVERSITY OF THE WITWATERSRAND, JOHANNESBURG, priority 2019, dated 2025).
Like-named read-outs stand apart in the source and are kept apart here.

Columns and labels:
[1] = UV absorbance, molar absorptivity coefficients (ε) of the synthesized compounds; type: physicochemical
Procedure: The synthesized compounds 4c, 5, 6, 9, 10, 13a, 13b, 14, 20, 21, and 23, were analysed for their UV absorbances and their molar absorptivity coefficients (e) were determined.

[2] = in L mol-1 cm-1, cited from earlier work

With `CCCCCCCCCCCCCCCc1cccc(O)c1C(=O)c1ccccc1O` [Compound 4c, [2-(Hydroxy)-6-pentadecylphenyl](2-hydroxyphenyl)methanone] the “experimental ε value (molar absorptivity coefficient)” value (from here on “experimental ε value”) ([1]; at 261 nm) was 36,366 L mol^−1 cm^−1 and the “experimental ε value” value ([1]; at 335 nm) was 10,538 L mol^−1 cm^−1.
Work on `CCCCCCCCCCCCCCCc1cc(O)c2c(=O)c3c(O)cccc3oc2c1` [Compound 14, 1,8-Dihydroxy-3-pentadecyl-9H-xanthen-9-one] yielded a ε value (molar absorptivity coefficient) ([1]; at 254 nm) of 23800 L/mol/cm.
For `CCCCCCCCCCCCCCCc1ccc(C(=O)/C=C/c2ccccc2)c(O)c1` [Compound 13a, (E)-1-(2-hydroxy-4-pentadecylphenyl)-3-phenylprop-2-en-1-one], the “experimental ε value” value ([1]; at 314 nm) was 20,403 L mol^−1 cm^−1.
In the case of `CCCCCCCCCCCCCCCc1cccc(O)c1C(=O)c1cc(OC)ccc1O` [Compound 5, (2-Hydroxy-5-methoxyphenyl)(2-hydroxy-6-pentadecylphenyl)methanone], the “ε value (molar absorptivity coefficient)” value ([1]; at 265 nm) is reported as 18,439 L mol^−1 cm^−1 and the “ε value (molar absorptivity coefficient)” value ([1]; at 374 nm) is reported as 8,785 L mol^−1 cm^−1.
For `CCCCCCCCCCCCCCCc1cccc(O)c1C(=O)c1cc(OC)c(OC)cc1O` [Compound 6, (2-Pentadecyl-6-hydroxyphenyl)(2-hydroxy-4,5-dimethoxyphenyl)methanone], the “ε value (molar absorptivity coefficient)” value ([1]; at 287 nm) was 34,096 L mol^−1 cm^−1 and the “ε value (molar absorptivity coefficient)” value ([1]; at 358 nm) was 25,014 L mol^−1 cm^−1.
In the case of `CCCCC(CC)COC(=O)C=Cc1ccc(OC)cc1` (centres unmarked) [2-ethylhexyl 4-methoxycinnamate], the “experimental molar absorption coefficient” value ([2]; at 356 nm) is given as 39,470.
In the case of `CCCCCCCCCCCCCCCc1ccc(-c2nc(-c3ccc(CCCCCCCCCCCCCCC)cc3O)nc(-c3ccc(CCCCCCCCCCCCCCC)cc3O)n2)c(O)c1` [Compound 21, 6,6′,6″-(1,3,5-Triazine-2,4,6-triyl)tris(3-pentadecylphenol)], the “experimental ε value” value ([1]; at 300 nm) is reported as 21,452 L mol^−1 cm^−1 and the experimental ε value (molar absorptivity coefficient) ([1]; at 364 nm) is reported as 12500 L/mol/cm.
For `CCCCCCCCCCCCCCCc1ccc(C(=O)c2ccccc2)c(O)c1` [Compound 9, (2-Hydroxy-4-pentadecylphenyl)(phenyl)methanone], the “experimental ε value” value ([1]; at 279 nm) was 47,909 L mol^−1 cm^−1.
With `CCCCCCCCCCCCCCCc1ccc(-c2nnc(-c3ccc(OC)c(OC)c3)o2)c(O)c1` [Compound 23, 2-[5-(3,4-Dimethoxyphenyl)-1,3,4-oxadiazol-2-yl]-5-pentadecylphenol] the “experimental ε value” value ([1]; at 293 nm) was 3,373 L mol^−1 cm^−1 and the “experimental ε value” value ([1]; at 326 nm) was 6,367 L mol^−1 cm^−1.
In the case of `CCCCCCCCCCCCCCCc1ccc2c(=O)c(O)c(-c3ccccc3)oc2c1` [Compound 13b, 3-Hydroxy-7-pentadecyl-2-phenyl-4H-chromen-4-one], the experimental ε value (molar absorptivity coefficient) ([1]; at 314 nm) is reported as 39900 L/mol/cm and the experimental ε value (molar absorptivity coefficient) ([1]; at 345 nm) is reported as 45000 L/mol/cm.
`CCCCCCCCCCCCCCCc1ccc(C(=O)c2ccccc2O)c(O)c1` [Compound 10, (2-hydroxy-4-pentadecylphenyl)(2-hydroxyphenyl)methanone] gave an experimental ε value (molar absorptivity coefficient) ([1]; at 282 nm) of 31700 L/mol/cm.
With `CCCCCCCCCCCCCCCc1ccc(-c2nc(-c3ccccc3)nc(-c3ccccc3)n2)c(O)c1` [Compound 20, 2-(4,6-Diphenyl-1,3,5-triazin-2-yl)-5-pentadecylphenol] the “ε value (molar absorptivity coefficient)” value ([1]; at 278 nm) was 29,252 L mol^−1 cm^−1.
For `COc1ccc(C(=O)CC(=O)c2ccc(C(C)(C)C)cc2)cc1` [avobenzone], the “experimental molar absorption coefficient” value ([2]; at 310 nm) is listed as 31,670.
For `COc1ccc(C(=O)c2ccccc2)c(O)c1` [oxybenzone], the “experimental molar absorption coefficient” value ([2]; at 287 nm) is listed as 15,150.
